{"source": "paper PMC10609904", "about": "(Pharmaceuticals, 2023)", "key": {"[1]": {"assay": "DPPH radical scavenging assay", "protocol": "(§1) The DPPH radical scavenging assay and the ABTS assay were used to assess anti-oxidant activity, as previously described in detail by Nguyen et al.. In a 96-well plate, 100 μL of samples (at various concentrations) or distilled water (blank sample) were combined with 25 μL of 0.75 mM DPPH solution (dissolved in methanol). After that, the plates were kept in complete darkness for 30 min. Subsequently, the absorbance was determined at a wavelength of 517 nm. For the ABTS radical-scavenging activity assay, test samples (at various concentrations) were mixed with pre-diluted ABTS solution (reaching an optical density of 0.7). The reaction was allowed to occur for 10 min at room temperature. The absorbance was measured at 734 nm. Ascorbic acid was used as positive control.\n(§2) All chemical assays were conducted in triplicate. […] The IC50 value (half-maximal inhibitory concentration of samples) was determined via a standard equation constructed by the inhibitory activity (%) and the respective concentration of the tested sample."}, "[2]": {"assay": "ABTS radical-scavenging activity assay", "protocol": "as §1, §2"}, "[3]": {"target": "T1, acetylcholinesterase (AChE) (Electrophorus electricus, UniProt O42275)", "T1 construct": "purchased Sigma Aldrich", "T1 sequence (O42275 24-633)": "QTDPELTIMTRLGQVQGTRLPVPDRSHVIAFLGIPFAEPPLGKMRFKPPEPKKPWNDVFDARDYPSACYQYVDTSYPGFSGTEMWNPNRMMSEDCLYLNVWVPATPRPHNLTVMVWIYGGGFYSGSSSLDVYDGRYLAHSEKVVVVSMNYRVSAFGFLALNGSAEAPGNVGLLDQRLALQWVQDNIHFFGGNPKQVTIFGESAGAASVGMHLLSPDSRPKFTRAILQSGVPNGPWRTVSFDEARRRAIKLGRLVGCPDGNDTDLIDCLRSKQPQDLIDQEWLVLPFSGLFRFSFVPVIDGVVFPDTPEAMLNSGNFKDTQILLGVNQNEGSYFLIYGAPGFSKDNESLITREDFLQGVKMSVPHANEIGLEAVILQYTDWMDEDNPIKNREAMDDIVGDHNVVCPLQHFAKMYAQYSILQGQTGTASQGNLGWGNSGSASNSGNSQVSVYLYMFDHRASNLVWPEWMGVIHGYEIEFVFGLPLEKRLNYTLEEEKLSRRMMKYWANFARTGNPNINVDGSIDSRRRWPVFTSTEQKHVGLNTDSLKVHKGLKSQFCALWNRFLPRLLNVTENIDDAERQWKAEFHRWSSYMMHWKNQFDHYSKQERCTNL", "assay": "biochemical", "protocol": "The anti-Alzheimer impact was assessed in vitro utilizing the key enzyme acetylcholinesterase inhibition assay, as described in an earlier study. In detail, 120 μL of phosphate buffer, 60 μL of tested sample, and 60 μL of enzymatic solution (0.5 mM) were mixed and incubated for fifteen minutes at 25 °C in a 96-well plate. This was followed by the addition of 30 μL of 5,5′-dithiobis-2-nitrobenzoic acid (0.003 M) and 40 μL of acetylthiocholine iodide (0.002 M). The reaction mixture was kept in an incubator at 25 °C for ten minutes. The absorbance of the solution was measured at 415 nm. Berberine chloride was used as a standard inhibitor of the enzyme.\nas §2"}}, "note": "Like-named read-outs stand apart in the source and are kept apart here."}
{"smiles": "O=C1O[C@H]([C@@H](O)CO)C(O)=C1O", "note": "[Vitamin C, Ascorbic acid]", "values": [{"measurement": "DPPH IC50", "setting": "[1]", "result": "38.4 ± 0.5", "unit": "µg/mL"}, {"measurement": "ABTS IC50", "setting": "[2]", "result": "23.0 ± 0.4", "unit": "µg/mL"}]}
{"smiles": "COc1ccc2cc3[n+](cc2c1OC)CCc1cc2c(cc1-3)OCO2", "note": "[compound 37, Berberine chloride]", "values": [{"measurement": "IC50", "setting": "[3]", "result": 895, "unit": "µM"}]}
{"smiles": "O=C(O)c1ccccc1O", "note": "[compound 8, Salicylic acid]", "values": [{"measurement": "IC50", "setting": "[3]", "result": 405, "unit": "µM"}]}
{"smiles": "COc1cc(O)c2c(c1)oc(=O)c1c3cc(O)c(O)cc3oc21", "note": "[compound 1, Wedelolactone]", "values": [{"measurement": "IC50", "setting": "[3]; read-out: AChE IC50 (converted)", "result": 195, "unit": "µM"}]}
